Two compounds from ChEMBL document CHEMBL4806965, “Nek6 kinase inhibitors useful for the treatment of solid tumors” (2019) can be followed below.

Assay [1] has as its system PEO1. The assay can be described thus: Cytotoxicity against human PEO1 cells assessed as inhibition of cell growth after 72 hrs by ATPlite assay. The settings on record: PEO1, 72 h. In kind it is functional, cell-based. In general terms: ATP-based viability assays read luminescence as a measure of living cells.
The subject of assay [2] is PEO1. The assay is described as follows: Synergistic cytotoxicity against human PEO1 cells assessed as combination index at 44 uM after 72 hrs in presence of 1000 uM of paclitaxel by ATPlite assay. In kind it is functional.
Assay [3] deals with PEO1. The assay can be described thus: Synergistic cytotoxicity against human PEO1 cells assessed as combination index at 44 uM after 72 hrs in presence of 1 uM of cisplatin by ATPlite assay. Type of assay: functional.
For assay [4], the system named is PEO1. The assay can be described thus: Synergistic cytotoxicity against human PEO1 cells assessed as combination index at 44 uM after 72 hrs in presence of 10 uM of paclitaxel by ATPlite assay. In kind it is functional.
For assay [5], the system named is PEO1. The assay is described as follows: Synergistic cytotoxicity against human PEO1 cells assessed as combination index at 44 uM after 72 hrs in presence of 10000 uM of paclitaxel by ATPlite assay. Type of assay: functional.
In assay [6] the test system is PEO1. The assay is described as follows: Synergistic cytotoxicity against human PEO1 cells assessed as combination index at 44 uM after 72 hrs in presence of 1 uM of paclitaxel by ATPlite assay. Type of assay: functional.
Assay [7] concerns PEO1. The assay can be described thus: Synergistic cytotoxicity against human PEO1 cells assessed as combination index at 44 uM after 72 hrs in presence of 10 uM of cisplatin by ATPlite assay. In kind it is functional.
Assay [8] has as its system PEO1. The assay can be described thus: Synergistic cytotoxicity against human PEO1 cells assessed as combination index at 44 uM after 72 hrs in presence of 5 uM of cisplatin by ATPlite assay. Type of assay: functional.
In assay [9] the test system is PEO1. The assay can be described thus: Synergistic cytotoxicity against human PEO1 cells assessed as combination index at 44 uM after 72 hrs in presence of 100 uM of paclitaxel by ATPlite assay. In kind it is functional.
The test system of assay [10] is PEO1. The assay is described as follows: Synergistic cytotoxicity against human PEO1 cells assessed as combination index at 44 uM after 72 hrs in presence of 0.1 uM of cisplatin by ATPlite assay. Type of assay: functional.
Assay [11] deals with PEO1. The assay is described as follows: Synergistic cytotoxicity against human PEO1 cells assessed as combination index at 44 uM after 72 hrs in presence of 2 uM of cisplatin by ATPlite assay. In kind it is functional.

pIC50: −log10 of the molar value.

For `CC(=O)O[C@H]1C(=O)[C@@]2(C)[C@H]([C@H](OC(=O)c3ccccc3)[C@]3(O)C[C@H](OC(=O)[C@H](O)[C@@H](NC(=O)c4ccccc4)c4ccccc4)C(C)=C1C3(C)C)[C@]1(OC(C)=O)CO[C@@H]1C[C@@H]2O` [PACLITAXEL], the negative-log IC50 (pIC50) in the assay with PEO1 [1] was 5.15.
As for `CC1=C(C#N)C(O)=NC(=O)/C1=C\c1ccc(-c2ccccc2)o1`, the CI in the assay with PEO1 [2] came to 29.58; in the assay with PEO1 [3], 1.08; in the assay on PEO1 [4], 1.05; in the assay on PEO1 [5], 287.79; in the assay with PEO1 [6] it was 0.87; in the assay on PEO1 [7] it was 0.69. Further, the CI amounted to 1.03 in the assay with PEO1 [8], 4.68 in the assay with PEO1 [9], 0.81 in the assay with PEO1 [10] and 1.01 in the assay on PEO1 [11]. Further, the pIC50 in the assay on PEO1 [1] is 4.36.

As a reminder, the pIC50 is the IC50 on a negative log10 scale, so that one unit is a factor of ten.
